Among the data in BindingDB's records for doi:10.1111/j.1747-0285.2007.00488.x (Shanghai Jiao Tong University, 2007) are IC50 values, retold here.

The target of this experiment is Vascular endothelial growth factor receptor 2 (Homo sapiens, UniProt P35968). In words: Kinase Inhibition Assay.

As a reminder, the IC50 is the point on the concentration scale where inhibition reaches its midpoint. A higher IC50 goes with weaker potency in that assay.

SMILES strings stand for the structures.

Vascular endothelial growth factor receptor 2, sequence (P35968 whole entry): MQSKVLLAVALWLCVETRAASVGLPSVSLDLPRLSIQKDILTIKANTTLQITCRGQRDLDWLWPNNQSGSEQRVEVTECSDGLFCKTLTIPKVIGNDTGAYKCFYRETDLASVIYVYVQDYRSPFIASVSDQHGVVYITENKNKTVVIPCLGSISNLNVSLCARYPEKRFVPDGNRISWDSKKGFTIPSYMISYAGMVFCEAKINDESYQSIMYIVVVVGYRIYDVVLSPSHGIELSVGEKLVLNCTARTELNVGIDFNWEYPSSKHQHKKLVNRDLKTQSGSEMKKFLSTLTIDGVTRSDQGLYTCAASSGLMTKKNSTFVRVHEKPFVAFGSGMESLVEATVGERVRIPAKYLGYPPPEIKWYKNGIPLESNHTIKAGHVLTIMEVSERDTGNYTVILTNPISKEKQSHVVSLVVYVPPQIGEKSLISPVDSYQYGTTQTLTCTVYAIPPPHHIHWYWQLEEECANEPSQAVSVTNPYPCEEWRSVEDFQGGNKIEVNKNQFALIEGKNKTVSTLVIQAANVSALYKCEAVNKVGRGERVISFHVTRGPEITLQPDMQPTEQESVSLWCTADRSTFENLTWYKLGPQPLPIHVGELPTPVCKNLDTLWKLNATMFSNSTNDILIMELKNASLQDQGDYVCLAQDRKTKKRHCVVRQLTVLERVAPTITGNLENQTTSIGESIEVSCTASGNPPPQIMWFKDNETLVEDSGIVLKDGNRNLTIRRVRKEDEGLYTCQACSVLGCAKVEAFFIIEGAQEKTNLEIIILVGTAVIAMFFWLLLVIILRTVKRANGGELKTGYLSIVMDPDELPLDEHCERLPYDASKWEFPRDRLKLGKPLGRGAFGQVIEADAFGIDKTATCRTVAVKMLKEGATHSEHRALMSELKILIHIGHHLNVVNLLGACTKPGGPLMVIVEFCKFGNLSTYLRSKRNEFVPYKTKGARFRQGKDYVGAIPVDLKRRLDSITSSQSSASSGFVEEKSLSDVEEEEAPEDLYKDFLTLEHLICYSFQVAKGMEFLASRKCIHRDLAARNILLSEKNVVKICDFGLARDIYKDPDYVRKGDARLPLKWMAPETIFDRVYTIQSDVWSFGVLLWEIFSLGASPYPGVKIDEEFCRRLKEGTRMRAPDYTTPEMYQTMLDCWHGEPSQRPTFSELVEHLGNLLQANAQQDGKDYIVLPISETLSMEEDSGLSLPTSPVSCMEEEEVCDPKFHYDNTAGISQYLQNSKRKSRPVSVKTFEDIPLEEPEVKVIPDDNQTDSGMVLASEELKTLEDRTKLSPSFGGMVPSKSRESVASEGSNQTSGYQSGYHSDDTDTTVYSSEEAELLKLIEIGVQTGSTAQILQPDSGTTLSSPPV

Compound `NC[C@@H]1O[C@H](O[C@H]2[C@@H](O)[C@H](O[C@@H]3[C@@H](O)[C@H](N)C[C@H](N)[C@H]3O[C@H]3O[C@H](CN)[C@@H](O)[C@H](O)[C@H]3N)O[C@@H]2CO)[C@H](N)[C@@H](O)[C@@H]1O` [KDR Kinase Inhibitor, 3] had an IC50 of 18 nM.
